Results as given in patent US20220265847A1, “METHODS AND COMPOSITIONS FOR TREATING NON-SMALL CELL LUNG CANCER” (Board of Regents, The University of Texas System, priority 2019, published 2022).

B1: vorsetuzumab-MMAE (conjugate, chains of the INN, looked up)
VH: QVQLVQSGAEVKKPGASVKVSCKASGYTFTNYGMNWVRQAPGQGLKWMGWINTYTGEPTYADAFKGRVTMTRDTSISTAYMELSRLRSDDTAVYYCARDYGDYGMDYWGQGTTVTVSS
VL: DIVMTQSPDSLAVSLGERATINCRASKSVSTSGYSFMHWYQQKPGQPPKLLIYLASNLESGVPDRFSGSGSGTDFTLTISSLQAEDVAVYYCQHSREVPWTFGQGTKVEIK
modifications: MMAE payload
B2: soluble CD27: recombinant soluble CD27, the binding partner of CD70 (protein, UniProt P26842 20-191, looked up)
extracellular domain: ATPAPKSCPERHYWAQGKLCCQMCEPGTFLVKDCDQHRKAAQCDPCIPGVSFSPDHHTRPHCESCRHCNSGLLVRNCTITANAECACRNGWQCRDKECTECDPLPNPSLTARSSQALSPHPQPTHLPYVSEMLEARTAGHMQTLADFRQLPARTLSTHWPPQRSLCSSDFIR
modifications: extracellular domain

How the values were obtained:
Format in all cases: cell-based
[1] = tested on: HCC827 (EGFR mutant) cells; assay: Sensitivity of HCC827 parental cells to EGFR TKIs compared to EGFR TKI resistant (ER) variants; conditions: FIG. 1
[2] = tested on: HCC4006 (EGFR mutant) cells; assay: Sensitivity of HCC4006 parental cells to EGFR TKIs compared to EGFR TKI resistant (ER) variants; conditions: FIG. 1
Text: While EGFR mutant NSCLC patients are initially responsive to EGFR tyrosine kinase inhibitors (TKI), resistant disease inevitably emerges. The inventors derived a panel of NSCLC cell lines with acquired resistance to EGFR TKIs. […] CD70 is typically expressed on T-cells and B-cells, but can also be expressed by some malignant cells. Expression of CD70 by tumor cells is thought to contribute to an immunosuppressive environment by affecting/attracting regulatory T cells and promoting T cell apoptosis and exhaustion.
While EGFR mutant NSCLC patients are initially responsive to EGFR tyrosine kinase inhibitors (TKI), resistant disease inevitably emerges. The inventors derived a panel of NSCLC cell lines with acquired resistance to EGFR TKIs. […] Once tumors were visualized by CT imaging, doxycycline was withdrawn from a subset of animals to mimic EGFR inhibition. […] Tumors were collected an CD70 expression was analyzed by immunohistochemistry. […] Next, the inventors evaluated CD70 expression in EGFR mutant EGFRTKI naïve NSCLC clinical specimens and EGFR mutant NSCLC specimens collected after EGFR TKI resistance.

[3] = tested on: HCC827 cells with induced expression of ZEB1; assay: EGFR TKI sensitivity of HCC827 cells after induced ZEB1 expression (EMT induction); conditions: HCC827 (EGFR TKI sensitive) cells with induced ZEB1 expression; FIG. 4B-D / 10B
Text: Next, the inventors investigated the impact of EMT on CD70 expression in EGFR mutant NSCLC cell lines. The inventors induced EMT through forced expression of ZEB1 in HCC827 parental (EGFR TKI sensitive) cells. […] The inventors next evaluated whether CD70 expression was associated with a mesenchymal phenotype in NSCLC cell lines and human lung adenocarcinomas using the TCGA database.

H1975 OR16 = assay: CD70 ADC relative cell viability; conditions: H1975 OR16 vs H1975 parental (CD70 low); increasing concentrations; FIG. 14 and 16
Text: (§1) FIG. 14A-C. CD70 antibody-drug conjugates (ADCs) target CD70+ EGFR TKI resistant cell in vitro.
(§2) To determine whether CD70 antibody drug conjugates (ADCs) are a valid approach for targeting EGFR TKI resistant cells, the inventors treated H1975 cells (CD70 low and EGFR TKI sensitive) and H1975 OR5 and H1975 OR16 (both EGFR TKI resistant and CD70 high) with increasing concentrations of the CD70 ADCs cuzatuzumab-MMAE or vorsetuzumab-MMAE. […] The inventors further observed an additive anti-tumor cell effect when osimertinib was combined with anti-CD70 ADCs. (FIG. 15).

H1975 OR5 = assay: CD70 ADC relative cell viability
Text: as §1, §2

[4] = tested on: HCC4006 osimertinib-resistant (OR) cells; assay: Soluble CD27 stimulation of CD70, downstream signalling by Western blotting; conditions: FIG. 12
Method: FIG. 12. Stimulation of CD70 activates signal transduction pathways in EGFR TKI resistant cells. HCC4006 osimertinib-resistant (OR) cells were treated with soluble CD27, the binding partner of CD70, and the effect on downstream signal transduction pathways was evaluated by Western blotting.
Binding of CD27 to CD70 induces activation of signal transduction pathways downstream of CD70. To investigate the potential impact of CD70 signaling on EGFR TKI resistant cells, the inventors stimulated EGR TKI resistant cells with recombinant soluble CD27.

Molecule | sensitivity to EGFR TKI [1] | sensitivity to EGFR TKI [2] | sensitivity to EGFR TKI after ZEB1 expression [3] | sensitivity to CD70 ADC versus H1975 parental cells (H1975 OR16) | anti-tumor cell activity (relative cell viability) (H1975 OR5; H1975 OR5, CD70 high, EGFR TKI resistant, FIG. 14) | sensitivity to CD70 ADC versus H1975 parental cells (H1975 OR5; H1975 OR5 vs H1975 parental (CD70 low), increasing concentrations, FIG. 14 and 16) | effect on downstream signal transduction pathways [4]
C#Cc1cccc(Nc2ncnc3cc(OCCOC)c(OCCOC)cc23)c1 [erlotinib] | sensitive | sensitive | resistant | – | – | – | –
C=CC(=O)Nc1cc(Nc2nccc(-c3cn(C)c4ccccc34)n2)c(OC)cc1N(C)CCN(C)C [osimertinib] | sensitive | sensitive | resistant | – | – | – | –
B1 | – | – | – | more sensitive | anti-tumor cell activity | more sensitive | –
B2 | – | – | – | – | – | – | phosphorylation of Akt and ERK
